Columns and labels:
[1] = system: B-lymphotropic papovavirus (LPV) in BJA-B K20 cells; test: LPV infection of analogue-treated hyposialylated cells (VP1 ELISA, T-antigen immunofluorescence); format: cell-based, human; conditions: BJA-B K20 cells (statement also covers K88 cells)
Protocol: Changes in permissivity for the sialic acid-dependent B-lymphotropic papovavirus (LPV) in hyposialylated (K20) and normally sialylated (K88) BJA-B cells after treatment with sialic acid analogues. Cells were treated with analogues or NeuAc for 3d. 50 h post LPV inoculation the LPV infection was quantified (A) by detecting the amount of LPV VP1 in cell lysates relative to the total protein content by ELISA and (B) by indirect immunofluorescence microscopy as percentage of LPV T-antigen-positive BJA-B K20 cells. A, values are given as arithmetic means±SD of three independent experiments. B, representatives of three experiments are shown. DAPI-staining (left) indicates the total amount of cells in the section, on the right LPV T-antigen positive cells are shown with the average percentage given beside. […]
BJA-B subclones were infected with the B-lymphotropic papovavirus (LPV) as described (Keppler, O. T., Herrmann, M., Oppenländer, M., Meschede, W., and Pawlita, M. (1994) J Virol 68(11), 6933-9). […] LPV infection was quantified by indirect immunofluorescence microscopy as percentage of LPV T-antigen positive cells and the amount of LPV VP1 in cell lysates was determined by ELISA relative to the total protein extracted.

HL60-I cells = test: metabolic complementation assay: lectin staining (VVA, LFA, TLM) of analogue-treated cells by flow cytometry; format: cell-based, human; conditions: 5 mM, 24 h
Protocol: Medium supplementation with some synthetic sialic acid analogues restores cell surface sialylation in hyposialylated HL60-I cells. Cells were cultivated in the presence of indicated synthetic sialic acid analogue (5 mM) for 24 h and stained with either directly fluorochrome-coupled lectins (VVA, LFA) or biotin-coupled lectin (TLM) and streptavidin-FITC and analyzed by flow cytometry. Values are given as “relative factor of change” (RFC) of the “mean fluorescence intensity” (MFI) of sialic acid-treated cells relative to untreated cells. The bars represent arithmetic means±SD (n^34) of one (x) or ≧two experiments.
To test whether cells can incorporate synthetic sialic acid analogues from the culture medium, a metabolic complementation assay was performed on endogenously hyposialylated, UDP-GlcNAc-2-epimerase-deficient HL60-I cells.
Cells were cultivated for 24 h in the presence of one of 16 different synthetic sialic acid analogues, carrying distinct C5 or C9 modifications (FIG. 1), and subsequently, changes in cell surface sialylation were assessed by flow cytometry using three fluorochrome-conjugated sialic acid-sensitive lectins. Vicia villosa agglutinin (VVA) detects GalNAc residues, and its binding sites can be masked by the addition of terminal sialic acid residues.
In sugar supplementation assays, cells seeded at 5×10^5 cells/ml in culture medium buffered with 40 mM HEPES (pH 7.2) were cultivated for 24 h in the presence or absence of 5 mM sialic acids (stocks of 100 mM dissolved in H2O, stored at 4° C.).
Lyophilized FITC-conjugated lectins Vicia villosa (VVA) was obtained from Sigma, dissolved in H2O (1 mg/ml), aliquoted and stored at −20° C. according to the manufacturer's instructions. FITC-conjugated Limax flavus agglutinin (LFA) was from EY Laboratories (San Manteo, Calif., USA) and biotin-coupled Tritrichomonas mobilensis agglutinin (TLM) from Calbiochem. Lectin staining procedure and fluorescence-activated cell scanning on a Becton Dickinson FACScan cytometer using Cellquest II software were carried out as described (Keppler, O. T., Molden-hauer, G., Oppenländer, M., Schwartz-Albiez, R., Berger, E. G., Funderud, S., and Pawlita, M. (1992) Eur J Immunol 22(11), 2777-81). Briefly, cells (3×10^5) were washed twice in cold PBS and then incubated in 100 μl PBS/0.05% NaN3, containing either fluorochrome-conjugated lectins VVA (50 μg/ml), LFA (20 μg/ml), or biotinylated TLM (20 μg/ml) for 45 min on ice in the dark. For biotinylated TLM a secondary incubation step with steptavidin-FITC (20 μg/ml) (Sigma) for 30 min on ice in the dark is required. After washing with PBS, cells were resuspended in 300 μl PBS and analyzed by flow cytometry.

SMILES: CC(=O)N[C@H]1[C@H]([C@H](O)[C@@H](C)O)OC(O)(C(=O)O)C[C@@H]1O (stereo partly shown) [analogue a, 5-N-acetyl-9-deoxy-neuraminic acid]
- LPV-permissivity [1]: to a lesser extent
- effect on LFA binding (HL60-I cells): increased binding of LFA
- effect on TLM binding (HL60-I cells): increased binding
- effect on VVA binding (HL60-I cells; decrease = masking of GalNAc by sialic acid): significantly decreased VVA-binding

Reference: patent US20050042714A1, “Glycoconjugates of sialic acid derivates, methods for their production and use thereof” (priority 2001, published 2005)
